How the values were obtained:
Type in all cases: cell-based
[1] = system: MMP-1 expression in human adult-derived dermal fibroblast cells; assay: Active MMP-1 in adult-derived human dermal fibroblasts after chronic dexamethasone and PMA; details: for Suppression of MMP-1 synthesis vs control, untreated cells: chronic dexamethasone then 1 μM PMA, adult fibroblasts
Experimental: (§1) In this study, to understand better the effect of chronic stress on dermal matrix remodelling in the skin, we have therefore measured changes in markers of dermal matrix degradation (MMP-1) and dermal matrix synthesis (Procollagen I) in chronically glucocorticoid-treated primary human dermal fibroblasts, following acute stress with PMA. The experimental approach is similar to that described in example 1 except that the cells tested are dermal fibroblasts and cells are assayed for expression of procollagen-1, MMP-1 and MMP-9 expression.
(§2) Primary human dermal fibroblast cells were cultured and passaged in DMEM (Gibco) supplemented with 10% FBS (foetal bovine serum). Cells were routinely plated out in 6-well tissue culture dishes, at a seeding density of ˜5000 cells/cm^2 in 2 ml complete medium/well for 24 hours, and incubated at 37° C. in 5% CO2. Media was removed and cells grown in DMEM & 1% FBS, 24 hours prior to treatments.
(§3) Pre-treatment and test solutions were prepared in DMEM containing low serum (1% FBS). […] Following this, the cells were oxidatively stressed for 24 hours with 1 μM PMA (Sigma P8139).
(§4) MMP-1 and MMP-9 protein in each cell supernatant was estimated using the Human active MMP-1 and MMP-9 Fluorokine enzyme kit (R&D Systems F1M00 and F9M00, respectively), according to the manufacturer's instructions.
(§5) Six MMP-1 and MMP-9 standards were prepared in calibrator diluent at concentrations ranging from 0.39 to 12.5 ng/ml and 0.25 to 16 ng/ml, respectively. 100 μl of assay diluent and 150 μl of tissue culture supernatant or standard was added to duplicate wells. The plate was incubated at room temperature for 3 hours on a horizontal orbital plate shaker before being washed four times with wash buffer. 200 μl of APMA was added to each well and the plate incubated at 37° C. for 2 hours in a humidified environment and protected from the light. The plate was washed as before. Each well received 200 μl of substrate solution and the plate incubated at 37° C. for 17-20 hours in a humidified environment and protected from the light. The relative fluorescence unit (RFU) of each well was determined using a fluorescence plate set with 1×20 mS integration time, plate speed ˜6; excitation wavelength set to 320 nm and emission wavelength set to 405 nm.
(§6) A standard curve was plotted of mean RFU versus MMP-1 and MMP-9 concentration (respectively), and the line of best fit calculated by regression analysis. The unknown concentration of either active MMP-1 or MMP-9 protein in all of the samples was estimated from this.

[2] = system: IL-6 expression in neonatal-derived human dermal fibroblasts; assay: IL-6 in neonatal-derived human dermal fibroblasts after chronic dexamethasone and PMA; details: GC-treated neonatal fibroblasts after PMA; T6 and T24; data not shown
Experimental: The IL-6 protein concentration of each tissue culture supernatant was assayed using the QuantiGlo Q6000 Human IL-6 assay (R&D Systems) according to the manufacturer's instructions.
Six IL-6 standards were prepared in calibrator diluent at concentrations ranging from 0 to 3000 pg/ml. 50 μl of assay diluent and 150 μl of tissue culture supernatant or standard was added to duplicate wells. The plate was incubated at room temperature for 2 hours on a horizontal orbital plate shaker before being washed four times with wash buffer. 200 μl of IL-6 conjugate was added to each well and the plate incubated at room temperature for 3 hours on a horizontal orbital plate shaker (˜500 rpm). The plate was washed as before. […] The relative light unit (RLU) of each well was determined using a luminometer set with 1 minute lag time, 1 second/well read time, summation mode and automatic gain on.
A standard curve was plotted of mean RLU versus IL-6 concentration and the line of best fit calculated by regression analysis. […]
In this study, to understand better the effect of chronic stress on dermal matrix remodelling in the skin, we have therefore measured changes in markers of dermal matrix degradation (MMP-1) and dermal matrix synthesis (Procollagen I) in chronically glucocorticoid-treated primary human dermal fibroblasts, following acute stress with PMA. […]

[3] = system: MMP-1 expression in human neonatal dermal fibroblast cells; assay: Active MMP-1 in neonatal-derived human dermal fibroblasts after chronic dexamethasone and PMA; details: for Suppression of MMP-1 synthesis and secretion vs control, untreated cells: chronic 1 μM dexamethasone 5 days then 1 μM PMA, neonatal fibroblasts
Experimental: as §1, §2, §3, §4, §5, §6
The same methods were used as described in Example 2, except that various test agents were added to the cells during the pre-treatment period.

C[C@@H]1C[C@H]2[C@@H]3CCC4=CC(=O)C=C[C@]4(C)[C@@]3(F)[C@@H](O)C[C@]2(C)[C@@]1(O)C(=O)CO [Dexamethasone]
Level of active MMP-1 ([1]; GC-treated adult fibroblasts): ~25 ng/mL | Suppression of MMP-1 synthesis vs control, untreated cells ([1]; T6): ~85% | Suppression of MMP-1 synthesis vs control, untreated cells ([1]; T24): 10% | Suppression of MMP-1 synthesis vs control, untreated cells ([1]; T48): 80% | Reduction in Interleukin-6 synthesis vs vehicle treated cells [2]: ~80% | Level of active MMP-1 ([3]; GC-treated neonate fibroblasts): 15 ng/mL | Suppression of MMP-1 synthesis and secretion vs control, untreated cells ([3]; T6): ~60% | Suppression of MMP-1 synthesis and secretion vs control, untreated cells ([3]; T24): 80% | Suppression of MMP-1 synthesis and secretion vs control, untreated cells ([3]; T48): 70%
